In patent publication US20250017906A1, “COMPOUNDS FOR USE IN TREATING GASTRIC CANCER” (BPGBio, Inc., priority 2021, published 2025):
“Also recorded” adds a separate entry of the source.

Assays:
HS746T tumors = assay: Gastric carcinoma xenograft model: Hs 746T tumors in nude mice, tumor growth inhibition; assay type: in vivo; conditions: for % Tumor Growth Inhibition (% TGI) / tumor growth inhibition, mixed effect linear model of the tumor volumes on the last day of study: HS746T xenograft
Experimental: Hs 746T cell line is a gastric carcinoma epithelial cell type from stomach that were isolated from the metastatic site of left leg muscle. Hs 746T cell lines were implanted subcutaneously in nude mice. Tumors were allowed to grow. Once the average tumor volume reached the volume of 120 mm3, animals were randomized into four groups of vehicle control, 75 mg/kg, 100 mg/kg, and 150 mg/kg 2-(difluoromethoxy)-N-[[5-(2-methoxyphenyl)-1H-1,2,4-triazol-3-yl]methyl]benzamide with 10 animals per group. Methocel E3 Premium LV with 2% labrasol in Milli-Q water was used for vehicle control. 2-(difluoromethoxy)-N-[[5-(2-methoxyphenyl)-1H-1,2,4-triazol-3-yl]methyl]benzamide was prepared prior to each dosing in 2% labrasol dissolved in Milli-Q water. 2-(difluoromethoxy)-N-[[5-(2-methoxyphenyl)-1H-1,2,4-triazol-3-yl]methyl]benzamide was administered by oral gavage two times a day (BID). In this study there were 10 animals per each group. […] The mean tumor volume of each group over time and the growth of tumor in each individual animal is plotted below. For each individual animal of vehicle group TGI % was calculated based on the tumor growth inhibition of individual tumor at each given day of the study compared to the average of the group for that given day of the study. The P value was calculated for each group that was treated with 2-(difluoromethoxy)-N-[[5-(2-methoxyphenyl)-1H-1,2,4-triazol-3-yl]methyl]benzamide for each given day of the study by comparing the TGI of that day to the TGI of the vehicle group. This P value is different than what is provided in the CRO report which is the P value related to tumor volume not TGI %. P value was calculated by excel program using two-tailed distribution and two-sample equal variance (homoscedastic). ns P>0.05; * P<0.05; ** P<0.01; *** P<0.001; **** P<0.0001.

UBE2K = molecular target: T1, UBE2K (Homo sapiens, UniProt P61086); conditions: poly-ubiquitination assays, FIG. 2 of U.S. Pat. No. 11,091,447; cited from earlier work
T1 sequence (P61086 1-200): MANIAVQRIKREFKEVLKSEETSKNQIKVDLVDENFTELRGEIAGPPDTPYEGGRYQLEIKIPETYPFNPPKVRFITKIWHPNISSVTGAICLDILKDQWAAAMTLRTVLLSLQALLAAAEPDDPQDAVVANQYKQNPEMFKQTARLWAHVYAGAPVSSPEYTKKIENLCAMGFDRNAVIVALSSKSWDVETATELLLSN

[1] = Tolerability (body weight, survival) in SNU-5 xenograft study; assay type: in vivo; conditions: oral BID, solid dispersion
Experimental: SNU-5 cell lines were implanted subcutaneously in nude mice. Tumors were allowed to grow. Once the average tumor volume reached the volume of 122 mm3, animals were randomized into three groups of vehicle control, 75 mg/kg and 150 mg/kg 2-(difluoromethoxy)-N-[[5-(2-methoxyphenyl)-1H-1,2,4-triazol-3-yl]methyl]benzamide with 12 animals per group. Methocel E3 Premium LV in Milli-Q water was used for vehicle control. A solid dispersion of 2-(difluoromethoxy)-N-[[5-(2-methoxyphenyl)-1H-1,2,4-triazol-3-yl]methyl]benzamide was prepared prior to each dosing in Milli-Q water. […] The percentage of tumor growth inhibition (TGI %) was calculated for each individual tumor. […] For each individual animal of vehicle group TGI % was calculated based on the tumor growth inhibition of individual tumor at each given day of the study compared to the average of the group for that given day of the study. The P value was calculated for each group that was treated with 2-(difluoromethoxy)-N-[[5-(2-methoxyphenyl)-1H-1,2,4-triazol-3-yl]methyl]benzamide for each given day of the study by comparing the TGI of that day to the TGI of the vehicle group. […] P value was calculated by excel program using two-tailed distribution and two-sample equal variance (homoscedastic). ns P>0.05; * P<0.05; ** P<0.01; *** P<0.001; **** P<0.0001.

[2] = Tolerability (body weight, survival) in HS746T xenograft study; assay type: in vivo; conditions: HS746T xenograft, 75, 100 and 150 mg/kg oral BID, 15 days
Experimental: Hs 746T cell line is a gastric carcinoma epithelial cell type from stomach that were isolated from the metastatic site of left leg muscle. Hs 746T cell lines were implanted subcutaneously in nude mice. Tumors were allowed to grow. Once the average tumor volume reached the volume of 120 mm3, animals were randomized into four groups of vehicle control, 75 mg/kg, 100 mg/kg, and 150 mg/kg 2-(difluoromethoxy)-N-[[5-(2-methoxyphenyl)-1H-1,2,4-triazol-3-yl]methyl]benzamide with 10 animals per group. Methocel E3 Premium LV with 2% labrasol in Milli-Q water was used for vehicle control. 2-(difluoromethoxy)-N-[[5-(2-methoxyphenyl)-1H-1,2,4-triazol-3-yl]methyl]benzamide was prepared prior to each dosing in 2% labrasol dissolved in Milli-Q water. […] For each individual animal of vehicle group TGI % was calculated based on the tumor growth inhibition of individual tumor at each given day of the study compared to the average of the group for that given day of the study. The P value was calculated for each group that was treated with 2-(difluoromethoxy)-N-[[5-(2-methoxyphenyl)-1H-1,2,4-triazol-3-yl]methyl]benzamide for each given day of the study by comparing the TGI of that day to the TGI of the vehicle group. […] P value was calculated by excel program using two-tailed distribution and two-sample equal variance (homoscedastic). ns P>0.05; * P<0.05; ** P<0.01; *** P<0.001; **** P<0.0001.

[3] = tested on: cyclin B1(CCNB1) and phospho histone H3(pHH3); assay: Level of cyclin B1 and phospho histone H3 in HS746T xenograft tumors; assay type: in vivo, nude mice; conditions: 75-150 mg/kg (FIG. 2)
SNU5 tumors = assay: Gastric carcinoma xenograft model: SNU-5 tumors in nude mice, tumor growth inhibition; assay type: in vivo; conditions: SNU-5 xenograft
Experimental: SNU-5 is derived from ascites of a patient with poorly differentiated carcinoma of the stomach. The patient had previously received chemotherapy including 5-fluorouracil, doxorubicin and mitomycin-C. This cell line is derived from metastatic site, ascites.
SNU-5 cell lines were implanted subcutaneously in nude mice. Tumors were allowed to grow. Once the average tumor volume reached the volume of 122 mm3, animals were randomized into three groups of vehicle control, 75 mg/kg and 150 mg/kg 2-(difluoromethoxy)-N-[[5-(2-methoxyphenyl)-1H-1,2,4-triazol-3-yl]methyl]benzamide with 12 animals per group. Methocel E3 Premium LV in Milli-Q water was used for vehicle control. A solid dispersion of 2-(difluoromethoxy)-N-[[5-(2-methoxyphenyl)-1H-1,2,4-triazol-3-yl]methyl]benzamide was prepared prior to each dosing in Milli-Q water. 2-(difluoromethoxy)-N-[[5-(2-methoxyphenyl)-1H-1,2,4-triazol-3-yl]methyl]benzamide was administered by oral gavage two times a day (BID). In this study there were 12 animals per each group. […] Animals that left the study prior to day 23 were eliminated from all calculations. The percentage of tumor growth inhibition (TGI %) was calculated for each individual tumor. The mean tumor volume of each group over time and the growth of tumor in each individual animal is plotted below. For each individual animal of vehicle group TGI % was calculated based on the tumor growth inhibition of individual tumor at each given day of the study compared to the average of the group for that given day of the study. The P value was calculated for each group that was treated with 2-(difluoromethoxy)-N-[[5-(2-methoxyphenyl)-1H-1,2,4-triazol-3-yl]methyl]benzamide for each given day of the study by comparing the TGI of that day to the TGI of the vehicle group. This P value is different than what is provided in the CRO report which is the P value related to tumor volume not TGI %. P value was calculated by excel program using two-tailed distribution and two-sample equal variance (homoscedastic). ns P>0.05; * P<0.05; ** P<0.01; *** P<0.001; **** P<0.0001.

[4] = tested on: cyclin B1 and phosphor histone H3; assay: Level of cyclin B1 and phospho histone H3 in SNU-5 xenograft tumors; assay type: in vivo, nude mice; conditions: 75 and 150 mg/kg (FIG. 4)

## COc1ccccc1-c1nc(CNC(=O)c2ccccc2OC(F)F)n[nH]1 [2-(difluoromethoxy)-N-[[5-(2-methoxyphenyl)-1H-1,2,4-triazol-3-yl]methyl]benzamide]
HS746T tumors; 150 mg/kg in nude mice (summary, FIG. 1)
  HS746T tumor growth inhibition (TGI): more than 70%
HS746T tumors; 75 mg/kg oral BID, day 3
  % Tumor Growth Inhibition (% TGI): 47.2%
HS746T tumors; 75 mg/kg oral BID, day 5
  % Tumor Growth Inhibition (% TGI): 45.9%
HS746T tumors; 75 mg/kg oral BID, day 8
  % Tumor Growth Inhibition (% TGI): 46.3%
HS746T tumors; 75 mg/kg oral BID, day 10
  % Tumor Growth Inhibition (% TGI): 46.3%
HS746T tumors; 75 mg/kg oral BID, day 12
  % Tumor Growth Inhibition (% TGI): 36.8%
HS746T tumors; 75 mg/kg oral BID, day 15
  % Tumor Growth Inhibition (% TGI): 35.7%
HS746T tumors; 75 mg/kg oral BID
  tumor growth inhibition, mixed effect linear model of the tumor volumes on the last day of study: 60.3%
HS746T tumors; 100 mg/kg oral BID, day 3
  % Tumor Growth Inhibition (% TGI): 65.8%
HS746T tumors; 100 mg/kg oral BID, day 5
  % Tumor Growth Inhibition (% TGI): 56.2%
HS746T tumors; 100 mg/kg oral BID, day 8
  % Tumor Growth Inhibition (% TGI): 57.7%
HS746T tumors; 100 mg/kg oral BID, day 10
  % Tumor Growth Inhibition (% TGI): 59.4%
HS746T tumors; 100 mg/kg oral BID, day 12
  % Tumor Growth Inhibition (% TGI): 49.3%
HS746T tumors; 100 mg/kg oral BID, day 15
  % Tumor Growth Inhibition (% TGI): 52.4%
HS746T tumors; 100 mg/kg oral BID
  tumor growth inhibition, mixed effect linear model of the tumor volumes on the last day of study: 71.2%
HS746T tumors; 150 mg/kg oral BID, day 3
  % Tumor Growth Inhibition (% TGI): 98.3%
HS746T tumors; 150 mg/kg oral BID, day 5
  % Tumor Growth Inhibition (% TGI): 93.1%
HS746T tumors; 150 mg/kg oral BID, day 8
  % Tumor Growth Inhibition (% TGI): 89.8%
HS746T tumors; 150 mg/kg oral BID, day 10
  % Tumor Growth Inhibition (% TGI): 84.2%
HS746T tumors; 150 mg/kg oral BID, day 12
  % Tumor Growth Inhibition (% TGI): 72.9%
HS746T tumors; 150 mg/kg oral BID, day 15
  % Tumor Growth Inhibition (% TGI): 74.3%
HS746T tumors; 150 mg/kg oral BID
  tumor growth inhibition, mixed effect linear model of the tumor volumes on the last day of study: 85.3%
UBE2K
  effect on mono-ubiquitinated UBE2K: stabilize mono-ubiquitinated UBE2K
[1]
  effect on body weight: without any significant effect on body weight
[2]
  effect on body weight: without any significant effect on body weight
[3]
  cyclinB1 in tumor tissues: dose-dependent increase
  phosphor histone H3 in tumor tissues: dose-dependent increase
SNU5 tumors; 75 mg/kg oral BID, day 2
  % Tumor Growth Inhibition (% TGI): 79%
SNU5 tumors; 75 mg/kg oral BID, day 5
  % Tumor Growth Inhibition (% TGI): 41%
SNU5 tumors; 75 mg/kg oral BID, day 7
  % Tumor Growth Inhibition (% TGI): 36%
SNU5 tumors; 75 mg/kg oral BID, day 9
  % Tumor Growth Inhibition (% TGI): 49%
SNU5 tumors; 75 mg/kg oral BID, day 12
  % Tumor Growth Inhibition (% TGI): 51%
SNU5 tumors; 75 mg/kg oral BID, day 14
  % Tumor Growth Inhibition (% TGI): 47%
SNU5 tumors; 75 mg/kg oral BID, day 16
  % Tumor Growth Inhibition (% TGI): 56%
SNU5 tumors; 75 mg/kg oral BID, day 19
  % Tumor Growth Inhibition (% TGI): 47%
SNU5 tumors; 75 mg/kg oral BID, day 21
  % Tumor Growth Inhibition (% TGI): 40%
SNU5 tumors; 150 mg/kg oral BID (FIG. 3)
  tumor growth inhibition: 64%
SNU5 tumors; 150 mg/kg oral BID, day 2
  % Tumor Growth Inhibition (% TGI): 129%
SNU5 tumors; 150 mg/kg oral BID, day 5
  % Tumor Growth Inhibition (% TGI): 70%
SNU5 tumors; 150 mg/kg oral BID, day 7
  % Tumor Growth Inhibition (% TGI): 58%
SNU5 tumors; 150 mg/kg oral BID, day 9
  % Tumor Growth Inhibition (% TGI): 64%
SNU5 tumors; 150 mg/kg oral BID, day 12
  % Tumor Growth Inhibition (% TGI): 63%
SNU5 tumors; 150 mg/kg oral BID, day 14
  % Tumor Growth Inhibition (% TGI): 54%
SNU5 tumors; 150 mg/kg oral BID, day 16
  % Tumor Growth Inhibition (% TGI): 64%
SNU5 tumors; 150 mg/kg oral BID, day 19
  % Tumor Growth Inhibition (% TGI): 52%
SNU5 tumors; 150 mg/kg oral BID, day 21
  % Tumor Growth Inhibition (% TGI): 49%
[4]
  cyclin B1 in tumor tissues: dose dependent increase; also recorded: dose-dependent increase
  phosphor histone H3 in tumor tissues: dose dependent increase; also recorded: dose-dependent increase
